US6979686B1, “Substituted pyrazoles as p38 kinase inhibitors” (Pharmacia Corporation, priority 2001, dated 2005)

Target: T1, human p38 kinase alpha (Homo sapiens, UniProt Q16539)
T1 construct: GST (N, cleaved yes); made in house; host or cells: E. coli DH10B
Test: p38 kinase in vitro assay, phosphorylation of biotinylated PHAS-I with 32P-ATP
Format: biochemical
Conditions: in vitro P38-alpha kinase inhibition; read-out: P38 alpha kinase IC50

T1 sequence (Q16539 whole entry): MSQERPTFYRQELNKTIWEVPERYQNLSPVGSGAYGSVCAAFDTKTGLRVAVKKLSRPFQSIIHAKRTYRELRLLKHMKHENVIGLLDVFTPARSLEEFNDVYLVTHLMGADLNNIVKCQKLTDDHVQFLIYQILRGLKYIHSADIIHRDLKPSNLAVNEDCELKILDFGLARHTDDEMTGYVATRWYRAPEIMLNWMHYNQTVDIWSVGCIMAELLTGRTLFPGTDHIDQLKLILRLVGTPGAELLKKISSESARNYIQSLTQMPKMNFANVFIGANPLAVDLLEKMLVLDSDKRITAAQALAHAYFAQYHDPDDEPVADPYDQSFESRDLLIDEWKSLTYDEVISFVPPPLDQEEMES

Row | IC50 [µM] | SMILES
1 | 1.96 | CC(NC(=O)c1cccc(Cl)c1Cl)c1[nH]nc(-c2ccc(F)cc2)c1-c1ccncc1 (stereo not drawn) [Example B-0681]
2 | 0.76 | Cc1cc(C)c(C(=O)NC(C)c2[nH]nc(-c3ccc(F)cc3)c2-c2ccncc2)c(C)c1 (stereo not drawn) [Example B-0682]
3 | 13 | CC(NC(=O)c1cc(C(F)(F)F)ccc1F)c1[nH]nc(-c2ccc(F)cc2)c1-c1ccncc1 (stereo not drawn) [Example B-0683]
4 | 0.54 | CC(NC(=O)c1c(F)cc(F)cc1F)c1[nH]nc(-c2ccc(F)cc2)c1-c1ccncc1 (stereo not drawn) [Example B-0684]
5 | 15.4 | CC(NC(=O)c1ccc(C(F)(F)F)cc1F)c1[nH]nc(-c2ccc(F)cc2)c1-c1ccncc1 (stereo not drawn) [Example B-0685]
6 | 0.42 | CC(NC(=O)c1c(F)cccc1C(F)(F)F)c1[nH]nc(-c2ccc(F)cc2)c1-c1ccncc1 (stereo not drawn) [Example B-0686]
7 | 14.6 | CC(NC(=O)c1ccc(F)c(C(F)(F)F)c1)c1[nH]nc(-c2ccc(F)cc2)c1-c1ccncc1 (stereo not drawn) [Example B-0689]
8 | 0.16 | CC(NC(=O)c1ccccc1Cl)c1[nH]nc(-c2ccc(F)cc2)c1-c1ccncc1 (stereo not drawn) [Example B-0691]
9 | 0.23 | CC(NC(=O)c1cccc(F)c1F)c1[nH]nc(-c2ccc(F)cc2)c1-c1ccncc1 (stereo not drawn) [Example B-0695]
10 | 0.085 | CC(NC(=O)c1c(Cl)cccc1Cl)c1[nH]nc(-c2ccc(F)cc2)c1-c1ccncc1 (stereo not drawn) [Example B-0696]
11 | 0.45 | CC(NC(=O)c1cc(F)ccc1F)c1[nH]nc(-c2ccc(F)cc2)c1-c1ccncc1 (stereo not drawn) [Example B-0697]
12 | 2.33 | CC(NC(=O)c1cc(F)c(F)cc1F)c1[nH]nc(-c2ccc(F)cc2)c1-c1ccncc1 (stereo not drawn) [Example B-0698]
13 | 0.24 | CC(NC(=O)c1c(F)cccc1F)c1[nH]nc(-c2ccc(F)cc2)c1-c1ccncc1 (stereo not drawn) [Example B-0700]
14 | 0.036 | CC(NC(=O)c1cccc(Cl)c1)c1[nH]nc(-c2ccc(F)cc2)c1-c1ccncc1 (stereo not drawn) [Example B-0702]
15 | 0.12 | CC(NC(=O)c1ccccc1Br)c1[nH]nc(-c2ccc(F)cc2)c1-c1ccncc1 (stereo not drawn) [Example B-0703]
16 | 0.44 | Cc1noc(C)c1C(=O)NC(C)c1[nH]nc(-c2ccc(F)cc2)c1-c1ccncc1 (stereo not drawn) [Example B-0706]
17 | 1.7 | O=S(=O)(NC(Cc1ccccc1)c1[nH]nc(-c2ccc(F)cc2)c1-c1ccncc1)c1ccc(F)cc1 (stereo not drawn) [Example B-0707]
18 | 2.1 | O=S(=O)(NC(Cc1ccccc1)c1[nH]nc(-c2ccc(F)cc2)c1-c1ccncc1)c1ccccc1 (stereo not drawn) [Example B-0708]
19 | 0.84 | CC(C)S(=O)(=O)NC(Cc1ccccc1)c1[nH]nc(-c2ccc(F)cc2)c1-c1ccncc1 (stereo not drawn) [Example B-0709]
20 | 1.99 | O=S(=O)(C=Cc1ccccc1)NC(Cc1ccccc1)c1[nH]nc(-c2ccc(F)cc2)c1-c1ccncc1 (stereo not drawn) [Example B-0710]
21 | 1.99 | O=S(=O)(Cc1ccccc1)NC(Cc1ccccc1)c1[nH]nc(-c2ccc(F)cc2)c1-c1ccncc1 (stereo not drawn) [Example B-0711]
22 | 2.9 | O=S(=O)(NC(Cc1ccccc1)c1[nH]nc(-c2ccc(F)cc2)c1-c1ccncc1)c1ccc(F)cc1F (stereo not drawn) [Example B-0712]
23 | 4.3 | O=S(=O)(NC(Cc1ccccc1)c1[nH]nc(-c2ccc(F)cc2)c1-c1ccncc1)C(F)(F)F (stereo not drawn) [Example B-0713]
24 | 3.7 | O=S(=O)(NC(Cc1ccccc1)c1[nH]nc(-c2ccc(F)cc2)c1-c1ccncc1)c1ccccc1F (stereo not drawn) [Example B-0714]

Row | IC50 [µM] | SMILES
25 | 4.6 | CCCCS(=O)(=O)NC(Cc1ccccc1)c1[nH]nc(-c2ccc(F)cc2)c1-c1ccncc1 (stereo not drawn) [Example B-0716]
26 | 3.4 | COc1ccc(S(=O)(=O)NC(Cc2ccccc2)c2[nH]nc(-c3ccc(F)cc3)c2-c2ccncc2)cc1 (stereo not drawn) [Example B-0719]
27 | 1.3 | O=S(=O)(NC(Cc1ccccc1)c1[nH]nc(-c2ccc(F)cc2)c1-c1ccncc1)c1cccs1 (stereo not drawn) [Example B-0720]
28 | 3.8 | Cc1ccc(S(=O)(=O)NC(Cc2ccccc2)c2[nH]nc(-c3ccc(F)cc3)c2-c2ccncc2)cc1 (stereo not drawn) [Example B-0721]
29 | 0.47 | CC(C)NC(=O)NC(Cc1ccccc1)c1[nH]nc(-c2ccc(F)cc2)c1-c1ccncc1 (stereo not drawn) [Example B-0723]
30 | 9.7 | O=C(NCc1ccccc1)NC(Cc1ccccc1)c1[nH]nc(-c2ccc(F)cc2)c1-c1ccncc1 (stereo not drawn) [Example B-0725]
31 | 0.51 | O=C(NC(Cc1ccccc1)c1[nH]nc(-c2ccc(F)cc2)c1-c1ccncc1)N1CCOCC1 (stereo not drawn) [Example B-0727]
32 | 20 | O=C(Nc1ccc(F)cc1)NC(Cc1ccccc1)c1[nH]nc(-c2ccc(F)cc2)c1-c1ccncc1 (stereo not drawn) [Example B-0728]
33 | 0.87 | CN(C)C(=O)NC(Cc1ccccc1)c1[nH]nc(-c2ccc(F)cc2)c1-c1ccncc1 (stereo not drawn) [Example B-0729]
34 | 32 | Cc1cccc(C)c1NC(=O)NC(Cc1ccccc1)c1[nH]nc(-c2ccc(F)cc2)c1-c1ccncc1 (stereo not drawn) [Example B-0733]
35 | 0.92 | C=CCNC(=O)NC(Cc1ccccc1)c1[nH]nc(-c2ccc(F)cc2)c1-c1ccncc1 (stereo not drawn) [Example B-0734]
36 | 1 | CCCNC(=O)NC(Cc1ccccc1)c1[nH]nc(-c2ccc(F)cc2)c1-c1ccncc1 (stereo not drawn) [Example B-0735]
37 | 26 | CC(NC(=O)NC(Cc1ccccc1)c1[nH]nc(-c2ccc(F)cc2)c1-c1ccncc1)c1ccccc1 (stereo not drawn) [Example B-0736]
38 | 4.1 | CC(NC(=O)NC(Cc1ccccc1)c1[nH]nc(-c2ccc(F)cc2)c1-c1ccncc1)c1ccccc1 (stereo not drawn) [Example B-0739]
39 | 4.4 | O=C(Nc1cccc(F)c1)NC(Cc1ccccc1)c1[nH]nc(-c2ccc(F)cc2)c1-c1ccncc1 (stereo not drawn) [Example B-0740]
40 | 26 | COc1ccc(NC(=O)NC(Cc2ccccc2)c2[nH]nc(-c3ccc(F)cc3)c2-c2ccncc2)cc1 (stereo not drawn) [Example B-0741]
41 | 1.2 | CCNC(=O)NC(Cc1ccccc1)c1[nH]nc(-c2ccc(F)cc2)c1-c1ccncc1 (stereo not drawn) [Example B-0743]
42 | 23 | COc1ccc(NC(=O)NC(Cc2ccccc2)c2[nH]nc(-c3ccc(F)cc3)c2-c2ccncc2)c(OC)c1 (stereo not drawn) [Example B-0744]
43 | 6 | O=C(Cc1cccs1)NC(Cc1ccccc1)c1[nH]nc(-c2ccc(F)cc2)c1-c1ccncc1 (stereo not drawn) [Example B-0745]
44 | 1.1 | CCCOC(=O)NC(Cc1ccccc1)c1[nH]nc(-c2ccc(F)cc2)c1-c1ccncc1 (stereo not drawn) [Example B-0747]
45 | 1.2 | CCOC(=O)NC(Cc1ccccc1)c1[nH]nc(-c2ccc(F)cc2)c1-c1ccncc1 (stereo not drawn) [Example B-0748]
46 | 4.4 | O=C(NC(Cc1ccccc1)c1[nH]nc(-c2ccc(F)cc2)c1-c1ccncc1)C1CCCN1 (stereo not drawn) [Example B-0749]
47 | 0.92 | O=C(NC(Cc1ccccc1)c1[nH]nc(-c2ccc(F)cc2)c1-c1ccncc1)C1CCCN1 (stereo not drawn) [Example B-0750]
48 | 1.6 | CC(C)OC(=O)NC(Cc1ccccc1)c1[nH]nc(-c2ccc(F)cc2)c1-c1ccncc1 (stereo not drawn) [Example B-0751]

Row | IC50 [µM] | SMILES
49 | 0.33 | O=S(=O)(NC(Cc1ccccc1)c1[nH]nc(-c2ccc(F)cc2)c1-c1ccncc1)c1ccc(F)cc1 (stereo not drawn) [Example B-0752]
50 | 0.37 | O=S(=O)(NC(Cc1ccccc1)c1[nH]nc(-c2ccc(F)cc2)c1-c1ccncc1)c1ccccc1 (stereo not drawn) [Example B-0753]
51 | 0.55 | CC(C)S(=O)(=O)NC(Cc1ccccc1)c1[nH]nc(-c2ccc(F)cc2)c1-c1ccncc1 (stereo not drawn) [Example B-0754]
52 | 2.3 | O=S(=O)(C=Cc1ccccc1)NC(Cc1ccccc1)c1[nH]nc(-c2ccc(F)cc2)c1-c1ccncc1 (stereo not drawn) [Example B-0755]
53 | 0.94 | O=S(=O)(Cc1ccccc1)NC(Cc1ccccc1)c1[nH]nc(-c2ccc(F)cc2)c1-c1ccncc1 (stereo not drawn) [Example B-0756]
54 | 0.54 | O=S(=O)(NC(Cc1ccccc1)c1[nH]nc(-c2ccc(F)cc2)c1-c1ccncc1)c1ccc(F)cc1F (stereo not drawn) [Example B-0757]
55 | 1.5 | O=S(=O)(NC(Cc1ccccc1)c1[nH]nc(-c2ccc(F)cc2)c1-c1ccncc1)C(F)(F)F (stereo not drawn) [Example B-0758]
56 | 0.3 | O=S(=O)(NC(Cc1ccccc1)c1[nH]nc(-c2ccc(F)cc2)c1-c1ccncc1)c1ccccc1F (stereo not drawn) [Example B-0759]
57 | < 0.1 | CCCCS(=O)(=O)NC(Cc1ccccc1)c1[nH]nc(-c2ccc(F)cc2)c1-c1ccncc1 (stereo not drawn) [Example B-0761]
58 | 0.67 | COc1ccc(S(=O)(=O)NC(Cc2ccccc2)c2[nH]nc(-c3ccc(F)cc3)c2-c2ccncc2)cc1 (stereo not drawn) [Example B-0764]
59 | 0.95 | Cc1ccc(S(=O)(=O)NC(Cc2ccccc2)c2[nH]nc(-c3ccc(F)cc3)c2-c2ccncc2)cc1 (stereo not drawn) [Example B-0766]
60 | 0.08 | COc1ccc(S(=O)(=O)NC(Cc2ccccc2)c2[nH]nc(-c3ccc(F)cc3)c2-c2ccncc2)cc1OC (stereo not drawn) [Example B-0767]
61 | 2.3 | O=C(NCc1ccccc1)NC(Cc1ccccc1)c1[nH]nc(-c2ccc(F)cc2)c1-c1ccncc1 (stereo not drawn) [Example B-0770]
62 | 0.5 | O=C(NC(Cc1ccccc1)c1[nH]nc(-c2ccc(F)cc2)c1-c1ccncc1)N1CCCC1 (stereo not drawn) [Example B-0771]
63 | 0.8 | O=C(NC(Cc1ccccc1)c1[nH]nc(-c2ccc(F)cc2)c1-c1ccncc1)N1CCOCC1 (stereo not drawn) [Example B-0772]
64 | 14 | O=C(Nc1ccc(F)cc1)NC(Cc1ccccc1)c1[nH]nc(-c2ccc(F)cc2)c1-c1ccncc1 (stereo not drawn) [Example B-0773]
65 | 1.5 | CN(C)C(=O)NC(Cc1ccccc1)c1[nH]nc(-c2ccc(F)cc2)c1-c1ccncc1 (stereo not drawn) [Example B-0774]
66 | 51 | Cc1cccc(C)c1NC(=O)NC(Cc1ccccc1)c1[nH]nc(-c2ccc(F)cc2)c1-c1ccncc1 (stereo not drawn) [Example B-0778]
67 | 0.5 | C=CCNC(=O)NC(Cc1ccccc1)c1[nH]nc(-c2ccc(F)cc2)c1-c1ccncc1 (stereo not drawn) [Example B-0779]
68 | 1.1 | CCCNC(=O)NC(Cc1ccccc1)c1[nH]nc(-c2ccc(F)cc2)c1-c1ccncc1 (stereo not drawn) [Example B-0780]
69 | 48 | CC(NC(=O)NC(Cc1ccccc1)c1[nH]nc(-c2ccc(F)cc2)c1-c1ccncc1)c1ccccc1 (stereo not drawn) [Example B-0781]
70 | 22 | O=C(Nc1ccccc1)NC(Cc1ccccc1)c1[nH]nc(-c2ccc(F)cc2)c1-c1ccncc1 (stereo not drawn) [Example B-0782]
71 | 8 | O=C(NCCc1ccccc1)NC(Cc1ccccc1)c1[nH]nc(-c2ccc(F)cc2)c1-c1ccncc1 (stereo not drawn) [Example B-0783]
72 | 7 | CC(NC(=O)NC(Cc1ccccc1)c1[nH]nc(-c2ccc(F)cc2)c1-c1ccncc1)c1ccccc1 (stereo not drawn) [Example B-0784]
